Measurements: patent US20230295200A1 (REGENTS OF THE UNIVERSITY OF MICHIGAN, priority 2022, published 2023)

Legend:
STAT6 protein = target: T1, STAT6 protein (Homo sapiens, UniProt P42226); test: Fluorescence polarization (FP) binding assay, STAT6; conditions: FP competition, 5 nM fluorescein-labeled tracer, 200 nM protein, PBS pH7.4; read-out: Binding STAT6
T1 sequence (P42226 1-847): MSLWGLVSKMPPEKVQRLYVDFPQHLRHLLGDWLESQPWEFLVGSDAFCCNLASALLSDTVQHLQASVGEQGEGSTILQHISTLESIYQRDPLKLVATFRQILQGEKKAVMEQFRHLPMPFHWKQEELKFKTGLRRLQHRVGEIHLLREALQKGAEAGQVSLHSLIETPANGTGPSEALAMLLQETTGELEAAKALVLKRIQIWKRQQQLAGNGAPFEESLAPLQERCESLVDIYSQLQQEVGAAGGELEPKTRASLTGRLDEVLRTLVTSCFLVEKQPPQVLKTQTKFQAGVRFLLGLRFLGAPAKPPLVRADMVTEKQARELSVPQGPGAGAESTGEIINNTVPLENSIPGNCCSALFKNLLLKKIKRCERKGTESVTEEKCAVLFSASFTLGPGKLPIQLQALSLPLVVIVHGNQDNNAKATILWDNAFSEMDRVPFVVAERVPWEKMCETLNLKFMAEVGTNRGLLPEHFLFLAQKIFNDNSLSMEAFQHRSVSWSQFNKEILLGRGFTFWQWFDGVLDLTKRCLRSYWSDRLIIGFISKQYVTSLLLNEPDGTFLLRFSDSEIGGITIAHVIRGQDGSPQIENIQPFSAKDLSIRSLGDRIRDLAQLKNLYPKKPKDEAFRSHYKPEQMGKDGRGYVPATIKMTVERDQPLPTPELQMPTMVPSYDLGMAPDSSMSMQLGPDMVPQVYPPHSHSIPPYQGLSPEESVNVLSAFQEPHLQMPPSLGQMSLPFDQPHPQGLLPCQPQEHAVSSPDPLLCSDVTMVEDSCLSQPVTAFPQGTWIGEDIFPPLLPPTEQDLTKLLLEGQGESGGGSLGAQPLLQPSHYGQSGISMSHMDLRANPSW
Method in brief: (§1)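 Competitive FP read-out with 5 nM fluorescein-labeled tracer and 200 nM STAT5 or STAT6 protein in PBS pH 7.4 containing 0.01% BGG, 0.01% Tween-20 and 2 mM DTT. Plates were shaken 15 min, then equilibrated 1 h at room temperature; inhibition constants came from nonlinear curve fitting.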

STAT5A = target: T2, STAT5A (Homo sapiens, UniProt P42229); test: Fluorescence polarization (FP) binding assay, STAT5A; conditions: FP competition, 5 nM fluorescein-labeled tracer, 200 nM protein, PBS pH7.4
T2 sequence (P42229 1-794): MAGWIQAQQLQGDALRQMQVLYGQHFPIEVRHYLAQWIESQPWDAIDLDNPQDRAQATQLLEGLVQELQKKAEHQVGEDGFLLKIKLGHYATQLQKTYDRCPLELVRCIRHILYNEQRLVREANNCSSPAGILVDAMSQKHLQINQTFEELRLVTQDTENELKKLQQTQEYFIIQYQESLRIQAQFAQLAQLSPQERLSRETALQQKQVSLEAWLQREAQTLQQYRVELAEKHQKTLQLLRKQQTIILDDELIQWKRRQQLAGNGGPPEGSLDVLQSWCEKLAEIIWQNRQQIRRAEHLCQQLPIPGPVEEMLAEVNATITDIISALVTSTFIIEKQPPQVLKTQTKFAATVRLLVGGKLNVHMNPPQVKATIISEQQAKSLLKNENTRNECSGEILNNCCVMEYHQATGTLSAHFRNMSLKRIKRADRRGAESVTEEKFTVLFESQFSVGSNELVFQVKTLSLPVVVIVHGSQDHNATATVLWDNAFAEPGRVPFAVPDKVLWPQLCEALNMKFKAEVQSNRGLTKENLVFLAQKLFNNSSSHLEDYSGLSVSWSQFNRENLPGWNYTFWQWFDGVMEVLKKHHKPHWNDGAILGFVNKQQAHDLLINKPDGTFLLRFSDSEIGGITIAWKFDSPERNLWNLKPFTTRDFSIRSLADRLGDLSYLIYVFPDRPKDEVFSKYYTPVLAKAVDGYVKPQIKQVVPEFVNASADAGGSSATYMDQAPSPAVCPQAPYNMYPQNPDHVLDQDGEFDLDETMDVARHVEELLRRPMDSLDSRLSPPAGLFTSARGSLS
Method in brief: as §1

| Compound | Ki (STAT6 protein) | Ki (STAT5A) |
| --- | --- | --- |
| CCCCC(=O)N1CC[C@@H]2CCN(C(=O)[C@@H]3CCCN3C(=O)[C@@H](NC(=O)c3cc4cc(C(F)(F)P(=O)(O)O)ccc4s3)C(C)(C)C)C[C@@H]21 [Compound 82, ((2-(((S)-3,3-dimethyl-1-oxo-1-((S)-2-((3aS,7aR)-1-pentanoyloctahydro-1H-pyrrolo[2,3-c]pyridine-6-carbonyl)pyrrolidin-1-yl)butan-2-yl)carbamoyl)benzo[b]thiophen-5-yl)difluoromethyl)phosphonic acid] | > 10000 nM | > 10000 nM |
| CC(=O)N1CC[C@@H]2CCN(C(=O)[C@@H]3CCCN3C(=O)[C@@H](NC(=O)c3cc4cc(C(F)(F)P(=O)(O)O)ccc4s3)C(C)(C)C)C[C@@H]21 [Compound 81, ((2-(((S)-1-((S)-2-((3aS,7aR)-1-acetyloctahydro-1H-pyrrolo[2,3-c]pyridine-6-carbonyl)pyrrolidin-1-yl)-3,3-dimethyl-1-oxobutan-2-yl)carbamoyl)benzo[b]thiophen-5-yl)difluoromethyl)phosphonic acid] | > 10000 nM | > 10000 nM |
| O=C(N[C@@H](Cc1ccncc1)C(=O)N1CCC[C@H]1C(=O)N1CCc2ccccc2C1)c1cc2cc(C(F)(F)P(=O)(O)O)ccc2[nH]1 [Compound 27, (difluoro(2-(((S)-1-oxo-3-(pyridin-4-yl)-1-((S)-2-(1,2,3,4-tetrahydroisoquinoline-2-carbonyl)pyrrolidin-1-yl)propan-2-yl)carbamoyl)-1H-indol-5-yl)methyl)phosphonic acid] | 1000 to 10000 nM | > 10000 nM |
| CC(C)(C)[C@H](NC(=O)c1cc2cc(C(F)(F)P(=O)(O)O)ccc2s1)C(=O)N1CCC[C@H]1C(=O)N1CCOC(c2ccccc2F)C1 (stereo partly drawn) [Compound 109, (difluoro(2-(((2S)-1-((2S)-2-(2-(2-fluorophenyl)morpholine-4-carbonyl)pyrrolidin-1-yl)-3,3-dimethyl-1-oxobutan-2-yl)carbamoyl)benzo[b]thiophen-5-yl)methyl)phosphonic acid] | 100 to 1000 nM | > 10000 nM |
| CC(C)(C)[C@H](NC(=O)c1cc2cc(C(F)(F)P(=O)(O)O)ccc2[nH]1)C(=O)N1CCC[C@H]1C(=O)N(c1ccccc1)c1ccc(I)cc1 [Compound 2, (difluoro(2-(((S)-1-((S)-2-((4-iodophenyl)(phenyl)carbamoyl)pyrrolidin-1-yl)-3,3-dimethyl-1-oxobutan-2-yl)carbamoyl)-1H-indol-5-yl)methyl)phosphonic acid] | 100 to 1000 nM | 1000 to 10000 nM |
| CC(=O)N1CC[C@H]2CC[C@@H](C(=O)N3CCOC[C@H]3c3ccccc3)N2C(=O)[C@@H](NC(=O)c2cc3cc(C(F)(F)P(=O)(O)O)ccc3s2)C1 [Compound 121, ((2-(((5S,8S,10aR)-3-acetyl-6-oxo-8-((R)-3-phenylmorpholine-4-carbonyl)decahydropyrrolo[1,2-a][1,5]diazocin-5-yl)carbamoyl)benzo[b]thiophen-5-yl)difluoromethyl)phosphonic acid] | 1000 to 10000 nM | > 10000 nM |

Next, values leading:

| Ki (STAT6 protein) | Ki (STAT5A) | Compound |
| --- | --- | --- |
| 100 to 1000 nM | 1000 to 10000 nM | O=C(N[C@H](C(=O)N1CCC[C@H]1C(=O)N1CCO[C@H](c2ccccc2)C1)C1CC1)c1cc2cc(C(F)(F)P(=O)(O)O)ccc2s1 [Compound 148, ((2-(((S)-1-cyclopropyl-2-oxo-2-((S)-2-((R)-2-phenylmorpholine-4-carbonyl)pyrrolidin-1-yl)ethyl)carbamoyl)benzo[b]thiophen-5-yl)difluoromethyl)phosphonic acid] |
| 100 to 1000 nM | 1000 to 10000 nM | CC(C)(C)[C@H](NC(=O)c1cc2cc(C(F)(F)P(=O)(O)O)ccc2s1)C(=O)N1CCCC[C@H]1C(=O)N1CCO[C@H](c2ccccc2)C1 [Compound 179, ((2-(((S)-3,3-dimethyl-1-oxo-1-((S)-2-((R)-2-phenylmorpholine-4-carbonyl)piperidin-1-yl)butan-2-yl)carbamoyl)benzo[b]thiophen-5-yl)difluoromethyl)phosphonic acid] |
| 1000 to 10000 nM | > 10000 nM | CC(C)(C)[C@H](NC(=O)c1cc2cc(C(F)(F)P(=O)(O)O)ccc2s1)C(=O)N1CCC[C@H]1C(=O)N1CCOC(c2nccs2)C1 (stereo partly drawn) [Compound 128, ((2-(((2S)-3,3-dimethyl-1-oxo-1-((2S)-2-(2-(thiazol-2-yl)morpholine-4-carbonyl)pyrrolidin-1-yl)butan-2-yl)carbamoyl)benzo[b]thiophen-5-yl)difluoromethyl)phosphonic acid] |
| 100 to 1000 nM | > 10000 nM | CC(=O)NC(C)(C)[C@H](NC(=O)c1cc2cc(C(F)(F)P(=O)(O)O)ccc2s1)C(=O)N1CCC[C@H]1C(=O)N1CCO[C@H](c2ccccc2)C1 [Compound 122, ((2-(((S)-3-acetamido-3-methyl-1-oxo-1-((S)-2-((R)-2-phenylmorpholine-4-carbonyl)pyrrolidin-1-yl)butan-2-yl)carbamoyl)benzo[b]thiophen-5-yl)difluoromethyl)phosphonic acid] |
| 1000 to 10000 nM | > 10000 nM | CC(C)(C)[C@H](NC(=O)c1cc2cc(C(F)(F)P(=O)(O)O)ccc2s1)C(=O)N1CCC[C@H]1C(=O)N1CCN(S(C)(=O)=O)[C@H](c2ccccc2)C1 [Compound 168, ((2-(((S)-3,3-dimethyl-1-((S)-2-((R)-4-(methylsulfonyl)-3-phenylpiperazine-1-carbonyl)pyrrolidin-1-yl)-1-oxobutan-2-yl)carbamoyl)benzo[b]thiophen-5-yl)difluoromethyl)phosphonic acid] |
| 100 to 1000 nM | 1000 to 10000 nM | CC(C)(C)[C@H](NC(=O)c1cc2cc(C(F)(F)P(=O)(O)O)ccc2s1)C(=O)N1CCC[C@H]1C(=O)N1CCS(=O)(=O)[C@@H](c2ccccc2)C1 [Compound 136, ((2-(((S)-1-((S)-2-((S)-1,1-dioxido-2-phenylthiomorpholine-4-carbonyl)pyrrolidin-1-yl)-3,3-dimethyl-1-oxobutan-2-yl)carbamoyl)benzo[b]thiophen-5-yl)difluoromethyl)phosphonic acid] |
| 1000 to 10000 nM | > 10000 nM | C#CC[C@H](NC(=O)c1cc2cc(C(F)(F)P(=O)(O)O)ccc2s1)C(=O)N1CCC[C@H]1C(=O)N1CCO[C@@H](c2ccccc2)C1 [Compound 153, (difluoro(2-(((S)-1-oxo-1-((S)-2-((S)-2-phenylmorpholine-4-carbonyl)pyrrolidin-1-yl)pent-4-yn-2-yl)carbamoyl)benzo[b]thiophen-5-yl)methyl)phosphonic acid] |
| 1000 to 10000 nM | 1000 to 10000 nM | CC(=O)N1CC[C@H]2CC[C@@H](C(=O)Nc3ncc(-c4ccccc4)s3)N2C(=O)[C@@H](NC(=O)c2cc3cc(C(F)(F)P(=O)(O)O)ccc3s2)C1 [Compound 165, ((2-(((5S,8S,10aR)-3-acetyl-6-oxo-8-((5-phenylthiazol-2-yl)carbamoyl)decahydropyrrolo[1,2-a][1,5]diazocin-5-yl)carbamoyl)benzo[b]thiophen-5-yl)difluoromethyl)phosphonic acid] |
| 1000 to 10000 nM | 1000 to 10000 nM | CCO[C@H]1CCN(C(=O)[C@@H](NC(=O)c2cc3cc(C(F)(F)P(=O)(O)O)ccc3s2)C(C)(C)C)[C@@H]1C(=O)N1CCO[C@H](c2ccccc2)C1 [Compound 308, ((2-(((S)-1-((2S,3S)-3-ethoxy-2-((R)-2-phenylmorpholine-4-carbonyl)pyrrolidin-1-yl)-3,3-dimethyl-1-oxobutan-2-yl)carbamoyl)benzo[b]thiophen-5-yl)difluoromethyl)phosphonic acid] |
